# Read-outs that look alike come from different tables or passages of the source.
# What was measured:
# [1] = test system: rabbit platelet-rich plasma (collagen-induced platelet aggregation); assay: Inhibition of collagen-induced platelet aggregation in rabbit platelet-rich plasma; format: cell-based; conditions: 3 minute incubation; for inhibition at 10 µM / inhibition at 100 µM: Oryctolagus cuniculus, Platelet, 0.05 h; for inhibition at 10 µM: compound 10^-5 M
# [2] = test system: rabbit platelet-rich plasma (ADP-induced platelet aggregation); assay: Inhibition of 10^-5 M ADP-induced platelet aggregation in rabbit platelet-rich plasma; format: cell-based; conditions: for inhibition at 10 µM / inhibition at 100 µM: Oryctolagus cuniculus, Platelet, 0.05 h; for inhibition at 10 µM: compound 10^-5 M; for inhibition at 100 µM: read-out: Inhibition (%) 10^-5 M ADP-Induced Aggregation
# [3] = test system: platelet-rich plasma (platelet aggregation); assay: Persistence of platelet aggregation inhibitory activity on incubation with platelet-rich plasma; format: cell-based, rabbit
# Experimental: The platelet aggregation inhibitory activity of representative compounds of the formula (I) were determined in terms of the percent inhibitory activity against 10-^5 M adenosine-5'-diphosphate (hereinafter referred to as "ADP")-induced or collagen-induced platelet aggregation in rabbit platelet-rich plasma according to the procedure described by G. V. R. Born and M. J. Cross in Journal of Physiology, Vol. 168, p. 178 (1963). […]
# [4] = test system: platelet aggregation; conditions: cited from earlier work
# [5] = pKa; format: physicochemical
# [6] = solvent DMSO, 3 minute incubation
# [7] = compound 10^-4 M, solvent DMSO, 3 minute incubation
# [8] = compound 10^-4 M, solvent PSS, 3 minute incubation
# [9] = J. Med. Chem., Vol. 16, No. 12, 1381-1388 (1973)
Structure (SMILES),"inhibition at 100 µM ([1]; compound 10^-4 M, solvent DMSO) [%]","inhibition at 100 µM ([1]; compound 10^-4 M, solvent PSS) [%]","inhibition at 100 µM [2, 7] [%]","inhibition at 100 µM [2, 8] [%]",further results
Cc1ccccc1Sc1nc(N)c2ncn([C@@H]3O[C@H](CO)[C@@H](O)[C@H]3O)c2n1 [2-(o-Tolyl)thioadenosine],–,–,–,–,"inhibition at 10 µM ([1]; solvent DMSO): 57%; inhibition at 10 µM [2, 6]: 61%"
Nc1ncnc2c1ncn2[C@@H]1O[C@H](CO)[C@@H](O)[C@H]1O [Adenosine],68,71,76,80,"inhibitory activity after 60 minutes of incubation with the platelet-rich plasma ([3]; 60 minutes of incubation): disappears completely after 60 minutes of incubation; inhibitory activity (control) ([3]; in words, from Table 1): fairly potent inhibitory activity; inhibition at 10 µM ([1]; solvent PSS): 51%; inhibition at 10 µM ([2]; solvent PSS, 3 minute incubation): 58%"
"Nc1ncnc2c1ncn2[C@@H]1O[C@H](COP(=O)(O)O)[C@@H](O)[C@H]1O [Ammonium Adenosine-5'-monophosphate, reference compound]",–,–,–,5,–
"CSc1nc(N)c2ncn([C@@H]3O[C@H](CO)[C@@H](O)[C@H]3O)c2n1 [2-Methylthioadenosine, reference compound]",–,25,–,12,–
Nc1nc(Sc2ccccc2)nc2c1ncn2[C@@H]1O[C@H](CO)[C@@H](O)[C@H]1O [2-Phenylthioadenosine],82,–,98,–,"inhibition at 10 µM ([1]; solvent DMSO): 58%; inhibition at 10 µM [2, 6]: 62%"
CSc1nc(N)c2ncn([C@@H]3O[C@H](COP(=O)(O)O)[C@@H](O)[C@H]3O)c2n1 [2-methylthioadenosine-5'-monophosphate],–,–,–,–,platelet aggregation inhibitory activity (prior art) ([4]; in words): only a weak platelet aggregation inhibitory activity
Nc1nc(S)nc2c1ncn2[C@@H]1O[C@H](CO)[C@@H](O)[C@H]1O [2-Thioadenosine],–,36,–,10,"inhibitory activity in ADP-induced platelet aggregation [4, 9]: only a weak inhibitory activity; inhibitory activity in collagen-induced platelet aggregation [4, 9]: only a weak inhibitory activity; pKa [5]: 7.8"
"CSc1nc(N)c2ncn([C@@H]3O[C@H](COP(=O)(O)O)[C@@H](O)[C@H]3O)c2n1 [Ammonium 2-Methylthioadenosine-5'-monophosphate, reference compound]",–,–,–,–,inhibition at 100 µM [2]: 35%
Nc1nc(Sc2ccc([N+](=O)[O-])cc2)nc2c1ncn2[C@@H]1O[C@H](CO)[C@@H](O)[C@H]1O [2-(p-Nitrophenyl)thioadenosine],81,–,92,–,–
Nc1nc(SCCCO)nc2c1ncn2[C@@H]1O[C@H](CO)[C@@H](O)[C@H]1O [2-(γ-Hydroxypropyl)thioadenosine],–,52,–,58,–
Nc1nc(SC2CC3CCC2C3)nc2c1ncn2[C@@H]1O[C@H](CO)[C@@H](O)[C@H]1O (stereo partly drawn) [2-(β-Norbornyl)thioadenosine],69,–,89,–,"inhibition at 10 µM ([1]; solvent DMSO): 51%; inhibition at 10 µM [2, 6]: 62%"
Nc1nc(SC2C3CC4CC(C3)CC2C4)nc2c1ncn2[C@@H]1O[C@H](CO)[C@@H](O)[C@H]1O (stereo partly drawn) [2-(β-Adamantyl)thioadenosine],72,–,95,–,"inhibition at 10 µM ([1]; solvent DMSO): 61%; inhibition at 10 µM [2, 6]: 72%"
Nc1nc(Sc2cccnc2)nc2c1ncn2[C@@H]1O[C@H](CO)[C@@H](O)[C@H]1O [2-(β-Pyridyl)thioadenosine],–,–,–,–,"Inhibition (%) Collagen-Induced Aggregation ([1]; compound 10^-4 M, solvent PSS): 52%; Inhibition (%) 10^-5 M ADP-Induced Aggregation [2, 8]: 61%"
Nc1nc(SCCO)nc2c1ncn2[C@@H]1O[C@H](CO)[C@@H](O)[C@H]1O [2-(β-Hydroxyethyl)thioadenosine],–,30,–,52,–
"CCCSc1nc(N)c2ncn([C@@H]3O[C@H](CO)[C@@H](O)[C@H]3O)c2n1 [2-Propylthioadenosine, reference compound]",–,–,–,16,–

# From patent US3968102A, “S-substituted-2-thioadenosines” (Kohjin Co., Ltd., priority 1974, dated 1976)
